Measurements published in patent publication US20260274839A1, “COMPOUND AND USE THEREOF IN TREATING HUMAN DIHYDROOROTATE DEHYDROGENASE (hDHODH)-MEDIATED DISEASES” (SICHUAN UNIVERSITY, priority 2023, published 2026).

Molecular target: hDHODH (Homo sapiens, UniProt Q02127)
Assay: Determination of hDHODH enzymatic inhibitory activity
Format: biochemical
Conditions: compound final concentration 1 μM; purified hDHODH 40 nM; absorbance 600 nm
Description: Determination of hDHODH Enzymatic Inhibitory Activity of Compounds
Assay buffer preparation: 100 mM HEPES buffer, 150 mM NaCl, 10% glycerol, and 0.1% Triton X-100 were mixed, adjusted to pH-8.0. A resulting mixture was diluted with Milli-Q water, and then stored at 4° C. A total volume of the enzyme activity detection system was 60 μL. The procedure was performed as follows: 1 μL of the small-molecule solution (with a final concentration of 1 μM) was added to a 96-well enzyme plate. 39 μL of a mixture containing the purified hDHODH protein (with a final concentration of 40 nM), 2,6-dichloroindophenol sodium salt (with a final concentration of 100 μM), coenzyme Q (CoQ, with a final concentration of 20 μM) were added thereto. The plate was protected from light and incubated at 37° C. with gentle shaking for 30 min. After the incubation was completed, 20 μL of dihydroorotate (DHO, with a final concentration of 200 μM) was added to each well. Absorbance was immediately measured using a microplate reader having the following procedure: kinetic assay: wavelength: 600 nm, total duration: 10 min, interval: every 20 s. Controls: negative control: Dimethyl sulfoxide (DMSO) (equal volume) without inhibitor; blank control: ultra-pure water (equal volume) without DHO substrate. All assays were conducted in triplicate. […]

Chain of hDHODH (Q02127 whole entry): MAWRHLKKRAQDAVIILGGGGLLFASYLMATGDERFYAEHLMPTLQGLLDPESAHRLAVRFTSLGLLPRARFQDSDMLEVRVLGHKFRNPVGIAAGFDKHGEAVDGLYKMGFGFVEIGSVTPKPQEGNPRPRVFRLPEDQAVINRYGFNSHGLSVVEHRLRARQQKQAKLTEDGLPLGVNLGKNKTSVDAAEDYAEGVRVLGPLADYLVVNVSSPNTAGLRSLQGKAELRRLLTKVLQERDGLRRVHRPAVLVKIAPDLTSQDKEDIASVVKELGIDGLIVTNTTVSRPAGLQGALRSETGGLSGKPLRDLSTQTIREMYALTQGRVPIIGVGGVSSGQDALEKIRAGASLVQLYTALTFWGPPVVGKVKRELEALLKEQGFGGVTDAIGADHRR

Fc1ccccc1Cn1nc(-c2ccc(C3CC3)cn2)c2cccnc21 [Compound D11]
inhibition at 1 µM: 48.3%
